Values joined by “and” are separate entries in the source; they are usually repeats but may differ in a detail not shown here. Equal entries are not always repeated. Square brackets hold non-standard residues; d marks the D form. Peptide text beside a SMILES is read from it. Hyp = O=C(O)[C@@H]1C[C@@H](O)CN1
Biological target: T1, recombinant human cGAS enzyme (hcGAS-ΔN, residues 147–522) (Homo sapiens, UniProt Q8N884)
T1 construct: N-terminally truncated human cGAS (hcGAS-ΔN, residues 147–522); 6xHis-SUMO (N, cleaved yes); made in house; host or cells: Escherichia coli BL21 (DE3)
Test: RNA-based fluorescent biosensor assay of cGAS activity (2',3'-cGAMP formation), in vitro screening
Format: biochemical
Details: for Remaining activity (%), Fig. 1a source data / remaining activity at 20 µM: 20 μM, replicate values; for remaining activity at 20 µM: read-out: Remaining activity (%), Fig. 1a source data; for inhibition at 20 µM: peptides screened at 20 μM, Supplementary Table 1 / Fig. S5b, read-out: Inhibition %
Text: To screen direct cGAS inhibitors targeting protein-DNA interface from our developed focused library of macrocyclic peptides, we applied an RNA-based fluorescent biosensor for 2’,3’-cGAMP to detect cGAS activity in vitro (Supplementary Fig. 1a)[49]. The formation of 2’,3’-cGAMP from ATP and GTP was catalyzed by recombinant human cGAS enzyme (hcGAS-ΔN, residues 147–522, Supplementary Fig. 1b) in the presence of ISD (interferon stimulatory DNA, a 45-bp dsDNA), which was readily quantified by the RNA-based fluorescent biosensor and was further confirmed by ion exchange chromatography (Supplementary Fig. 1c). […] Subsequently, a total of 90 macrocyclic peptides were screened at a concentration of 20 μM (Fig. 1a and Supplementary Fig. 1e), and 4 hits (XQ2, XQ8, XQ19, and XQ46) were obtained for further testing at a cut-off of 40% inhibition (Supplementary Table 1). To evaluate the inhibitory effect of the hits against cGAS in cells, we employed real-time quantitative PCR (qPCR) to examine mRNA levels of IFNΒ1 in THP1 cells. The reported cGAS inhibitor RU.521 was used as the positive control, and the non-active peptide XQ28 in the screening assay was used as the negative control. […] The inhibition of cGAS by these hits was further confirmed in the reporter cell line THP1-Lucia ISG (Invivogen) that expresses secreted luciferase induced by an IRF3-inducible ISG54 promoter (Fig. 1c). The discrepancy between the inhibitory effect of the hits in protein and cellular assays may be attributed to their different cellular permeability.
The high-throughput screening (HTS) experiments of cGAS activity are based on the method previously described. To initiate the enzyme reaction, ISD was added to the reaction solution (40 mM Tris-HCl, pH 7.5, 100 mM NaCl, 10 mM MgCl2) containing hcGAS-ΔN, ATP (Sangon Biotech, Cat# A600311) and GTP (Sangon Biotech, Cat# A620332) in a total volume of 20 ul with the final concentration of 0.5 μM, 1.5 μM, 1 mM, 1 mM, respectively, and incubated for 2 h at 37 °C. For HTS experiments, compounds were added to the same reaction conditions as described above with the final concentration of 20 μM. Z’ factors were calculated from three replicates in the 384-well plate.

T1 sequence (Q8N884 147-522, stated change not applied): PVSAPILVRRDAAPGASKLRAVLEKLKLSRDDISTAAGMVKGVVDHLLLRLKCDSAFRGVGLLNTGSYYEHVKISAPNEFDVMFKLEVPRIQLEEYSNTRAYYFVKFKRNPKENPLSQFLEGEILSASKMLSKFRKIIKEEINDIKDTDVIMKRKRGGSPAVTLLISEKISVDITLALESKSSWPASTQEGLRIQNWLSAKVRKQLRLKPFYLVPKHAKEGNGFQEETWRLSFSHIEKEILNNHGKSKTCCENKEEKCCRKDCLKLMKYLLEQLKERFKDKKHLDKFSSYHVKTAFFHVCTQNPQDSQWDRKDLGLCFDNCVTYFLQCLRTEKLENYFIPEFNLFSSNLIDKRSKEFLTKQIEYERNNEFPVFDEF

Remaining activity (%), Fig. 1a source data	remaining activity at 20 µM [%]	inhibition at 20 µM [%]	Compound
76.5914% and 76.7702%	76.9	23	CC(C)C[C@@H]1NC(=O)[C@H](CCCNC(=N)N)NC(=O)[C@H](C(C)C)NC(=O)[C@@H]2CCCN2C(=O)[C@@H](Cc2ccccc2)NC(=O)[C@H](CC(C)C)NC(=O)[C@H](CCCNC(=N)N)NC(=O)[C@H](C(C)C)NC(=O)[C@@H]2CCCN2C(=O)[C@@H](C)NC1=O [XQ1, Cyclo (LaPVRLfPVR)] (cyclo(L[dA]PVRL[dF]PVR))
67.2186% and 66.8539%	67.1	33	CC(C)C[C@@H]1NC(=O)[C@H](CCCNC(=N)N)NC(=O)[C@H](C(C)C)NC(=O)[C@@H]2CCCN2C(=O)[C@@H](Cc2ccccc2)NC(=O)[C@H](CC(C)C)NC(=O)[C@H](CCCNC(=N)N)NC(=O)[C@H](C)NC(=O)[C@@H]2CCCN2C(=O)[C@@H](Cc2ccccc2)NC1=O [XQ3, Cyclo (LfPARLfPVR)] (cyclo(ARL[dF]PVRL[dF]P))
84.7804% and 84.3938%	84.5	16	CC(C)C[C@@H]1NC(=O)[C@H](C)NC(=O)[C@H](C(C)C)NC(=O)[C@@H]2CCCN2C(=O)[C@@H](Cc2ccccc2)NC(=O)[C@H](CC(C)C)NC(=O)[C@H](CCCNC(=N)N)NC(=O)[C@H](C(C)C)NC(=O)[C@@H]2CCCN2C(=O)[C@@H](Cc2ccccc2)NC1=O [XQ4, Cyclo (LfPVALfPVR)] (cyclo(AL[dF]PVRL[dF]PV))
92.0132% and 91.3002%	92.3	8	CC(C)C[C@@H]1NC(=O)[C@H](CCCNC(=N)N)NC(=O)[C@H](C(C)C)NC(=O)[C@@H]2CCCN2C(=O)[C@@H](Cc2ccccc2)NC(=O)[C@H](C)NC(=O)[C@H](CCCNC(=N)N)NC(=O)[C@H](C(C)C)NC(=O)[C@@H]2CCCN2C(=O)[C@@H](Cc2ccccc2)NC1=O [XQ5, Cyclo (AfPVRLfPVR)] (cyclo(A[dF]PVRL[dF]PVR))
68.1038% and 66.5986%	66.6	32	CC(C)C[C@@H]1NC(=O)[C@H](CCCNC(=N)N)NC(=O)[C@H](C(C)C)NC(=O)[C@@H]2C[C@@H](O)CN2C(=O)[C@@H](Cc2ccccc2)NC(=O)[C@H](CC(C)C)NC(=O)[C@H](CCCNC(=N)N)NC(=O)[C@H](C(C)C)NC(=O)[C@@H]2CCCN2C(=O)[C@@H](Cc2ccccc2)NC1=O [XQ6, Cyclo (LfPVRLf(Hyp)VR)] (cyclo([Hyp]VRL[dF]PVRL[dF]))
101.466% and 100.76%	101	0	CC(C)C[C@@H]1NC(=O)[C@H](CCCNC(=N)N)NC(=O)[C@H](C(C)C)NC(=O)[C@@H]2CCCN2C(=O)[C@@H](C)NC(=O)[C@H](CC(C)C)NC(=O)[C@H](CCCNC(=N)N)NC(=O)[C@H](C(C)C)NC(=O)[C@@H]2CCCN2C(=O)[C@@H](C)NC1=O [XQ7, Cyclo (LaPVRLaPVR)] (cyclo(L[dA]PVRL[dA]PVR))
109.335% and 107.433%	108	0	CC(C)C[C@@H]1NC(=O)[C@H](CCCNC(=N)N)NC(=O)[C@H](C)NC(=O)[C@@H]2CCCN2C(=O)[C@@H](Cc2ccccc2)NC(=O)[C@H](CC(C)C)NC(=O)[C@H](CCCNC(=N)N)NC(=O)[C@H](C)NC(=O)[C@@H]2CCCN2C(=O)[C@@H](Cc2ccccc2)NC1=O [XQ9, Cyclo (LfPARLfPAR)] (cyclo(ARL[dF]PARL[dF]P))
103.793% and 104.243%	103	0	CC(C)[C@@H]1NC(=O)[C@@H]2CCCN2C(=O)[C@@H](Cc2ccccc2)NC(=O)[C@H](C)NC(=O)[C@H](CCCNC(=N)N)NC(=O)[C@H](C(C)C)NC(=O)[C@@H]2CCCN2C(=O)[C@@H](Cc2ccccc2)NC(=O)[C@H](C)NC(=O)[C@H](CCCNC(=N)N)NC1=O [XQ10, Cyclo (AfPVRAfPVR)] (cyclo(A[dF]PVRA[dF]PVR))
86.4291% and 86.3946%	85.2	14	CC(C)C[C@@H]1NC(=O)[C@H](CCCNC(=N)N)NC(=O)[C@H](C(C)C)NC(=O)[C@@H]2CCCN2C(=O)[C@@H](Cc2c[nH]c3ccccc23)NC(=O)[C@H](CC(C)C)NC(=O)[C@H](CCCNC(=N)N)NC(=O)[C@H](C(C)C)NC(=O)[C@@H]2CCCN2C(=O)[C@@H](Cc2c[nH]c3ccccc23)NC1=O [XQ11, Cyclo (LwPVRLwPVR)] (cyclo(L[dW]PVRL[dW]PVR))
93.4229% and 93.3308%	93.7	7	CC(C)C[C@@H]1NC(=O)[C@H](CCCNC(=N)N)NC(=O)[C@H](C(C)C)NC(=O)[C@@H]2C[C@@H](O)CN2C(=O)[C@@H](Cc2ccccc2)NC(=O)[C@H](CC(C)C)NC(=O)[C@H](CCCNC(=N)N)NC(=O)[C@H](C(C)C)NC(=O)[C@@H]2C[C@@H](O)CN2C(=O)[C@@H](Cc2ccccc2)NC1=O [XQ12, Cyclo (Lf(Hyp)VRLf(Hyp)VR)] (cyclo([Hyp]VRL[dF][Hyp]VRL[dF]))
92.7452% and 92.4625%	93.4	7	CC(C)C[C@@H]1NC(=O)[C@H](CCCNC(=N)N)NC(=O)[C@H](C)NC(=O)[C@@H]2CCCN2C(=O)[C@@H](Cc2ccccc2)NC(=O)[C@H](C)NC(=O)[C@H](CCCNC(=N)N)NC(=O)[C@H](C(C)C)NC(=O)[C@@H]2CCCN2C(=O)[C@@H](Cc2ccccc2)NC1=O [XQ13, Cyclo (AfPARLfPVR)] (cyclo(ARL[dF]PVRA[dF]P))
96.1851% and 95.3459%	96	4	CC(C)C[C@@H]1NC(=O)[C@H](CCCNC(=N)N)NC(=O)[C@H](C(C)C)NC(=O)[C@@H]2CCCN2C(=O)[C@@H](C)NC(=O)[C@H](C)NC(=O)[C@H](CCCNC(=N)N)NC(=O)[C@H](C(C)C)NC(=O)[C@@H]2CCCN2C(=O)[C@@H](Cc2ccccc2)NC1=O [XQ14, Cyclo (AaPVRLfPVR)] (cyclo(A[dA]PVRL[dF]PVR))
110.709% and 110.469%	110	0	CC(C)C[C@@H]1NC(=O)[C@H](CCCNC(=N)N)NC(=O)[C@H](C(C)C)NC(=O)[C@@H]2CCCN2C(=O)[C@@H](Cc2ccccc2)NC(=O)[C@H](C)NC(=O)[C@H](CCCNC(=N)N)NC(=O)[C@H](C)NC(=O)[C@@H]2CCCN2C(=O)[C@@H](Cc2ccccc2)NC1=O [XQ15, Cyclo (AfPVRLfPAR)] (cyclo(ARA[dF]PVRL[dF]P))
99.1383% and 98.554%	98.3	1	CC(C)C[C@@H]1NC(=O)[C@H](CCCNC(=N)N)NC(=O)[C@H](C)NC(=O)[C@@H]2CCCN2C(=O)[C@@H](Cc2ccccc2)NC(=O)[C@H](C)NC(=O)[C@H](CCCNC(=N)N)NC(=O)[C@H](C)NC(=O)[C@@H]2CCCN2C(=O)[C@@H](Cc2ccccc2)NC1=O [XQ16, Cyclo (AfPARLfPAR)] (cyclo(ARA[dF]PARL[dF]P))
66.7673% and 68.063%	67.2	32	CC(C)C[C@@H]1NC(=O)[C@H](CCCNC(=N)N)NC(=O)[C@H](C(C)C)NC(=O)[C@@H]2CCCN2C(=O)[C@@H](C)NC(=O)[C@H](C)NC(=O)[C@H](CCCNC(=N)N)NC(=O)[C@H](C(C)C)NC(=O)[C@@H]2CCCN2C(=O)[C@@H](C)NC1=O [XQ17, Cyclo (AaPVRLaPVR)] (cyclo(A[dA]PVRL[dA]PVR))
93.9479% and 95.218%	94.3	5	CC(C)[C@@H]1NC(=O)[C@@H]2CCCN2C(=O)[C@@H](Cc2ccccc2)NC(=O)[C@H](C)NC(=O)[C@H](CCCNC(=N)N)NC(=O)[C@H](C)NC(=O)[C@@H]2CCCN2C(=O)[C@@H](Cc2ccccc2)NC(=O)[C@H](C)NC(=O)[C@H](CCCNC(=N)N)NC1=O [XQ18, Cyclo (AfPARAfPVR)] (cyclo(ARA[dF]PVRA[dF]P))
88.8732% and 88.6928%	89.1	11	CC(C)[C@@H]1NC(=O)[C@H](C)NC(=O)[C@@H](Cc2ccccc2)NC(=O)[C@H](C)NC(=O)[C@H](CCCNC(=N)N)NC(=O)[C@H](C(C)C)NC(=O)[C@@H]2CCCN2C(=O)[C@@H](Cc2ccccc2)NC(=O)[C@H](C)NC(=O)[C@H](CCCNC(=N)N)NC1=O [XQ20, Cyclo (AfAVRAfPVR)] (cyclo(AVRA[dF]PVRA[dF]))

Reference: PMC10545747, “Development of cyclopeptide inhibitors of cGAS targeting protein-DNA interaction and phase separation” (Nature Communications, 2023)
